This passage reports ED50 results from US5945454A, “2-(4-substituted)-benzylamino-2-methyl-propanamide derivatives” (Pharmacia & Upjohn, S.P.A., priority 1995, dated 1999).

The subject of the assay is maximal electroshock seizures (MES). The experiment in a line: antagonism of maximal electroshock seizures (MES) after oral administration. The format is in vivo. To be noted: limits in parentheses, read-out: MES-ED50 (effective dose in 50% of treated animals). How it is done: The activity on the CNS of the compounds of the invention was evaluated on the basis of pharmacological methods, such as, for example, the antagonism of convulsions and lethality induced by intravenous injection of bicuculline in mice (Antiepileptic Drugs, D. M. Woodbury et al. eds., 2nd edition, Raven Press, New York, 1982), or the antagonism of maximal electroshock seizures (MES) (Woodbury, L. A. and Davenport, V. D., Arch. Int. Pharmacodyn. Ther. 92; 97-104, 1952).
The following table summarizes the activity data obtained by testing in the MES test a representative group of compounds of the invention in comparison with the respective 2-desmethyl related compounds known from WO 90/14334.
ED50 means effective dose in 50% of treated animals after per os (po) administration.
On the technique in general: Protection in the maximal electroshock model is a classic sign of anticonvulsant action.
A word on the ED50: it is the midpoint of the dose-response relation. With `C[C@H](NCc1ccc(OCc2ccc(F)cc2)cc1)C(N)=O` [FCE 26998A, (S)-2-(4-(4-fluorobenzyloxy)benzylamino) propanamide, methanesulfonate], the ED50 was 16.3 mg/kg.

With `CNC(=O)C(C)(C)NCc1ccc(OCc2cccc(F)c2)cc1.CS(=O)(=O)O` [FCE 29647A, 2-[4-(3-fluorobenzyloxy)benzylamino]-2-methyl-N-methyl-propanamide, methanesulfonate], the ED50 is 4.34 mg/kg.

For `CC(C)(NCc1ccc(OCc2ccccc2F)cc1)C(N)=O.CS(=O)(=O)O` [FCE 29484A, 2-[4-(2-fluorobenzyloxy)benzylamino]-2-methyl-propanamide, methanesulfonate], the ED50 stood at 3.1 mg/kg.

With `C[C@H](NCc1ccc(OCc2cccc(Cl)c2)cc1)C(N)=O` [FCE 26193A, (S)-2-(4-(3-chlorobenzyloxy)benzylamino) propanamide, methanesulfonate], the ED50 was determined as 9.41 mg/kg.

As to `C[C@H](NCc1ccc(SCc2ccccc2)cc1)C(N)=O` [FCE 26727A, (S)-2-(4-benzylsulfanyl)benzylamino) propanamide, methanesulfonate], the ED50 stood at 12.7 mg/kg.

Take `CC(C)(NCc1ccc(SCc2ccccc2)cc1)C(N)=O` [FCE 29482A, 2-[(4-benzylsulfanyl)benzylamino]-2-methyl-propanamide, methanesulfonate]: the ED50 was determined as 3.12 mg/kg.

For `CNC(=O)[C@H](C)NCc1ccc(OCc2cccc(F)c2)cc1.CS(=O)(=O)O` [FCE 28657A, (S)-2-(4-(3-fluorobenzyloxy)benzylamino)-N-methylpropanamide, methanesulfonate], the ED50 was found to be 9.35 mg/kg.

Consider `C[C@H](NCc1ccc(OCc2ccccc2F)cc1)C(N)=O` [FCE 26742A, (S)-2-(4-(2-fluorobenzyloxy)benzylamino) propanamide, methanesulfonate], for which the ED50 was determined as 7.13 mg/kg.

Consider `C[C@H](NCc1ccc(OCc2cccc(F)c2)cc1)C(N)=O` [FCE 26743A, (S)-2-(4-(3-fluorobenzyloxy)benzylamino) propanamide, methanesulfonate], for which the ED50 was found to be 8.2 mg/kg.

Regarding `CC(C)(NCc1ccc(OCc2cccc(Cl)c2)cc1)C(N)=O` [FCE 29644A, 2-[4-(3-chlorobenzyloxy)benzylamino]-2-methyl-propanamide, methanesulfonate], the ED50 was determined as 3.88 mg/kg.

As to `CC(C)(NCc1ccc(OCc2ccc(F)cc2)cc1)C(N)=O.CS(=O)(=O)O` [FCE 29645A, 2-[4-(4-fluorobenzyloxy)benzylamino]-2-methyl-propanamide, methanesulfonate], the ED50 was found to be 6.58 mg/kg.

Regarding `CC(C)(NCc1ccc(OCc2cccc(F)c2)cc1)C(N)=O` [FCE 29088A, 2-[4-(3-fluorobenzyloxy)benzylamino]-2-methyl-propanamide, methanesulfonate], the ED50 was 4.4 mg/kg.
